Consider 29 molecules from US11352340B2, “Pyridine and pyridimine compounds as PI3K-gamma inhibitors” (Incyte Corporation, priority 2016, dated 2022).

The target in experiment [1] is PI3Kγ (p110γ) Recombinant Human Protein (Homo sapiens (Human), UniProt P48736). Briefly: PI3K-γ Scintillation Proximity Assay. Format: biochemical. To be noted: read-out: PI3K-gamma SPA IC50. An outline of the steps: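 Radiometric SPA: reaction at room temperature for 120 min using 2 μM ATP with [γ-33P]ATP tracer, 20 μM PIP2 substrate and 13 nM human PI3Kγ (MOPS pH 6.7, MgCl2, DTT, CHAPS; 2% DMSO). EDTA quench with WGA beads, scintillation count, and IC50 fit of percent-of-control activity.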
Chain of PI3Kγ (p110γ) Recombinant Human Protein (P48736 whole entry): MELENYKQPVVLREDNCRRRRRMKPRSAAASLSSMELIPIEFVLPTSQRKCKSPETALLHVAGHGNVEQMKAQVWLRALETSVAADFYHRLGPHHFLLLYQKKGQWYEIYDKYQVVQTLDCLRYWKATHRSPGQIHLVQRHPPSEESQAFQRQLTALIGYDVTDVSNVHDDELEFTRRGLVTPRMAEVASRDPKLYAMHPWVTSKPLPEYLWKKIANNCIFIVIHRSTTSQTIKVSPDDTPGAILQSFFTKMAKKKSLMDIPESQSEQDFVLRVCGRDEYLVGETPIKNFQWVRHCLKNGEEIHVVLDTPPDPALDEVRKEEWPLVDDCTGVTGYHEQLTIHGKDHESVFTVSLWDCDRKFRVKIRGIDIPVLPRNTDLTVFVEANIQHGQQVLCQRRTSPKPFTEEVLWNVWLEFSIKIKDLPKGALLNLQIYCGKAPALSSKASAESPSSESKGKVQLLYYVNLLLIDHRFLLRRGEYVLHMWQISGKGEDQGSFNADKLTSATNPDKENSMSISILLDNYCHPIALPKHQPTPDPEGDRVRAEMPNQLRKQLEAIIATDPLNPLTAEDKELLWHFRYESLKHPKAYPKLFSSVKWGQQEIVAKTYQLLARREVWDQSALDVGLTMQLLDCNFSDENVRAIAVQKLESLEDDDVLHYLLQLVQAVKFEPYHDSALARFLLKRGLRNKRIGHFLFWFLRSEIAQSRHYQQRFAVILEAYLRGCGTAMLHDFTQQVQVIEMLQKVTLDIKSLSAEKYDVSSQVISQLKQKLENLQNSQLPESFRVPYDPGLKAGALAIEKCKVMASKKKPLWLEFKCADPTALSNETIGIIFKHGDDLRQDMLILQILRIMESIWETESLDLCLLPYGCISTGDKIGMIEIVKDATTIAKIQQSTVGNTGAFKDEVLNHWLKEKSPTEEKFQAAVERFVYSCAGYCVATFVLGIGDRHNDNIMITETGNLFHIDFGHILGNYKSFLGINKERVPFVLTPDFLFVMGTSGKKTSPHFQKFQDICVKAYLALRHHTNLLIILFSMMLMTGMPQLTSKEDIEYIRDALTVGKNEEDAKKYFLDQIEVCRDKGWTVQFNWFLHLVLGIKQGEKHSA
(In general: SPA uses beads or plates that emit light when radiolabelled molecules are held near them.)

Experiment [2] deals with PI3Kδ (p110δ/p85α) Recombinant Human Protein (Homo sapiens (Human), UniProt O00329). The experiment is described as follows: PI3Kδ Scintillation Proximity Assay. Format: biochemical. To be noted: read-out: PI3K-delta SPA IC50. An outline of the steps:
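IC50 was fitted to percent solvent-control activity from SPA scintillation counts after WGA bead capture of 33P-labelled lipid product. Reaction: 120 min, room temperature, 3.4 nM p110δ/p85α, 20 μM PIP2, 2 μM ATP with tracer, MOPS pH 6.7 buffer containing MgCl2, DTT, CHAPS, 2% DMSO.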

Structures can show the parent of a compound that is named as a salt.

Chain of PI3Kδ (p110δ/p85α) Recombinant Human Protein (O00329 whole entry): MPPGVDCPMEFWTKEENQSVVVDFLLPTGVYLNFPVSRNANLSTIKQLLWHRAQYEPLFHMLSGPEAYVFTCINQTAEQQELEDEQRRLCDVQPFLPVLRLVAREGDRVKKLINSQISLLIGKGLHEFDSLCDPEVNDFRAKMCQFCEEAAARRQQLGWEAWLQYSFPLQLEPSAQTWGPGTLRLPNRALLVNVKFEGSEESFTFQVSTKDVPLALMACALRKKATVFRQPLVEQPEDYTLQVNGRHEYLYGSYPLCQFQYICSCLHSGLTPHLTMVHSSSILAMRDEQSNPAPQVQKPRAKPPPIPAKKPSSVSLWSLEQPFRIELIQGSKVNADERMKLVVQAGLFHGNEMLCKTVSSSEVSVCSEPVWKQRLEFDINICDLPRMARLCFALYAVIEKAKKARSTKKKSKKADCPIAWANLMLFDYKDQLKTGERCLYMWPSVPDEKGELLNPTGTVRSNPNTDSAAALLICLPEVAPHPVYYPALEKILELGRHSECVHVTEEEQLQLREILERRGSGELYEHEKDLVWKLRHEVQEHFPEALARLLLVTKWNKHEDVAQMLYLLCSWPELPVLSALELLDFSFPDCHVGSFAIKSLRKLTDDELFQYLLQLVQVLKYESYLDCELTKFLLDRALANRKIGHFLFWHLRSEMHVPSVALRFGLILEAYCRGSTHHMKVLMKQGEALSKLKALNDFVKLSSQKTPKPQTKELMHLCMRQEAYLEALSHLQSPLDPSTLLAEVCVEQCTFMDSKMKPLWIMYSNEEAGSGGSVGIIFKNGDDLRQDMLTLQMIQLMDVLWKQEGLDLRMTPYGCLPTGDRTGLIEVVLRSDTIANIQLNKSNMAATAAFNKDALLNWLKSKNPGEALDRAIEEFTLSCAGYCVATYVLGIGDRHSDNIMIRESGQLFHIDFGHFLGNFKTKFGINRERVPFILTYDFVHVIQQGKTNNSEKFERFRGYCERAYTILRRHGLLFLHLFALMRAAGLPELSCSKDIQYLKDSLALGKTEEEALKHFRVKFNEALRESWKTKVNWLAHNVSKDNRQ
Chain of PI3Kδ (p110δ/p85α) Recombinant Human Protein (P27986 whole entry partner): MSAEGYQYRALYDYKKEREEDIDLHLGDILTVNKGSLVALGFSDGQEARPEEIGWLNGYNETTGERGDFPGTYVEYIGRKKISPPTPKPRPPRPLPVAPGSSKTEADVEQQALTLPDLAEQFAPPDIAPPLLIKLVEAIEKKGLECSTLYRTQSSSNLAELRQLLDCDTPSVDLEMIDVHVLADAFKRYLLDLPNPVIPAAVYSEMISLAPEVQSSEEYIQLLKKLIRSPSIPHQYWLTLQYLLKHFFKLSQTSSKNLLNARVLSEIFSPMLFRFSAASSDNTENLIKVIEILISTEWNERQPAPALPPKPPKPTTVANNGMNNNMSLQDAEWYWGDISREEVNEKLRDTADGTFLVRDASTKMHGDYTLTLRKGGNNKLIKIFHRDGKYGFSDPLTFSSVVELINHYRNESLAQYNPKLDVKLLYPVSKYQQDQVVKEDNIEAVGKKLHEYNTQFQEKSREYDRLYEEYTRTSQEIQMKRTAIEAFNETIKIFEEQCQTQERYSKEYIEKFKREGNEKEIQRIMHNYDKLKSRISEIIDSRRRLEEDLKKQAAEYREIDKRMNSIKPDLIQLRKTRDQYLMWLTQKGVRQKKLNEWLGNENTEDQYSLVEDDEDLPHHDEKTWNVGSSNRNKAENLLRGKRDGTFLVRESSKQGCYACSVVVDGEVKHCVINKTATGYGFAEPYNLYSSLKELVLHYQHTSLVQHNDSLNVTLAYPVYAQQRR

Turning to `Cc1nc(-c2cc(-c3cncc(C(=O)NCC4CCOCC4)c3)ccn2)[nH]c1C` [Example 162, 2′-(4,5-Dimethyl-1H-imidazol-2-yl)-N-((tetrahydro-2H-pyran-4-yl)methyl)-3,4′-bipyridine-5-carboxamide trifluoroacetate salt], the IC50 in experiment [1] and in experiment [2] was not above 500 nM in each case.
As to `CNCc1nc(-c2cc(-c3cncc(N4CCOCC4)c3)ccn2)[nH]c1C` [Example 288, N-Methyl-1-[5-methyl-2-(5-morpholin-4-yl-3,4′-bipyridin-2′-yl)-1H-imidazol-4-yl]methanamine], the IC50 in experiment [1] was more than 500 nM; in experiment [2], not above 500 nM.
As for `NC(=O)CCn1cc(-c2ccnc(-c3ncc(-c4ccccc4)[nH]3)c2)cn1` [Example 53, 3-(4-(2-(5-Phenyl-1H-imidazol-2-yl)pyridin-4-yl)-1H-pyrazol-1-yl)propanamide], the IC50 in experiment [1] and in experiment [2] was more than 500 nM each time.
In the case of `N#Cc1cccc(C(=O)Nc2cncc(-c3ccnc(-c4ncc(-c5ccccc5)[nH]4)c3)c2)c1` [Example 136, 3-Cyano-N-(2′-(5-phenyl-1H-imidazol-2-yl)-3,4′-bipyridin-5-yl)benzamide], the IC50 in experiment [1] and in experiment [2] was not above 500 nM in each case.
With `O=C(O)c1cccc(Cn2cc(-c3ccnc(-c4ncc(-c5ccccc5)[nH]4)c3)cn2)c1` [Example 34, 3-((4-(2-(5-Phenyl-1H-imidazol-2-yl)pyridin-4-yl)-1H-pyrazol-1-yl)methyl)benzoic acid trifluoroacetate salt], the IC50 in experiment [1] and in experiment [2] was not above 500 nM throughout.
Regarding “4-(1-Methyl-3-(trifluoromethyl)-1H-pyrazol-5-yl)-2-(5-phenyl-1H-imidazol-2-yl)pyridine trifluoroacetate salt [Example 13]”, the IC50 in experiment [1] and in experiment [2] was more than 500 nM in each case.
As for `Cc1nc(-c2cc(C3=CCCN(C(=O)c4ccccc4)C3)ccn2)[nH]c1C` [Example 222, (3-(2-(4,5-Dimethyl-1H-imidazol-2-yl)pyridin-4-yl)-5,6-dihydropyridin-1(2H)-yl)(phenyl)methanone trifluoroacetate salt], the IC50 in experiment [1] and in experiment [2] was more than 500 nM throughout.
`CC(=O)N1CCC=C(c2ccnc(-c3nc(C)c(C)[nH]3)c2)C1` [Example 219, 1-(3-(2-(4,5-Dimethyl-1H-imidazol-2-yl)pyridin-4-yl)-5,6-dihydropyridin-1(2H)-yl)ethanone trifluoroacetate salt]: the IC50 in experiment [1] and in experiment [2] was more than 500 nM each time.
For `O=S(=O)(c1ccccc1)N1CCC(c2c[nH]c(-c3cc(-c4cnn(Cc5ccc(Cl)cc5)c4)ccn3)n2)C1` (stereo not shown) [Example 305, 4-[1-(4-Chlorobenzyl)-1H-pyrazol-4-yl]-2-{4-[1-(phenylsulfonyl)pyrrolidin-3-yl]-1H-imidazol-2-yl}pyridine trifluoroacetate salt], the IC50 in experiment [1] and in experiment [2] was not above 500 nM throughout.
With `O=C(Cn1cc(-c2ccnc(-c3ncc(-c4ccccc4)[nH]3)c2)cn1)N1CCOCC1` [Example 51, 1-Morpholino-2-(4-(2-(5-phenyl-1H-imidazol-2-yl)pyridin-4-yl)-1H-pyrazol-1-yl)ethanone trifluoroacetate salt], the IC50 in experiment [1] and in experiment [2] was more than 500 nM each time.
For the molecule `Cc1nc(-c2cc(-c3cncc(C(=O)N4CCCC(c5ccccc5)C4)c3)ccn2)[nH]c1C` (racemic) [Example 188, 2′-(4,5-Dimethyl-1H-imidazol-2-yl)-5-[(3-phenylpiperidin-1-yl)carbonyl]-3,4′-bipyridine trifluoroacetate salt], the IC50 in experiment [1] and in experiment [2] was not above 500 nM throughout.
For `Cc1nc(-c2cc(-c3cncc(C(=O)N4CC5(CCN(C)C5=O)C4)c3)ccn2)[nH]c1C` [Example 171, 2-(2′-(4,5-Dimethyl-1H-imidazol-2-yl)-3,4′-bipyridine-5-carbonyl)-6-methyl-2,6-diazaspiro[3.4]octan-5-one trifluoroacetate salt], the IC50 in experiment [1] and in experiment [2] was not above 100 nM throughout.
As for `COc1cncc(-c2ccnc(-c3cnc(N)[nH]3)c2)c1` [Example 61, 5-(5-Methoxy-3,4′-bipyridin-2′-yl)-1H-imidazol-2-amine], the IC50 in experiment [1] and in experiment [2] was more than 500 nM throughout.
With `CCS(=O)(=O)n1cc(-c2ccnc(-c3ncc(-c4ccccc4)[nH]3)c2)cn1` [Example 45, 4-(1-(Ethylsulfonyl)-1H-pyrazol-4-yl)-2-(5-phenyl-1H-imidazol-2-yl)pyridine trifluoroacetate salt], the IC50 in experiment [1] and in experiment [2] was not above 500 nM each time.
On to `CS(=O)(=O)N1CCC(c2c[nH]c(-c3cc(-c4cnn(Cc5ccc(Cl)cc5)c4)ccn3)n2)C1` (single isomer, unassigned) [Example 304, 4-[1-(4-Chlorobenzyl)-1H-pyrazol-4-yl]-2-{4-[1-(methylsulfonyl)pyrrolidin-3-yl]-1H-imidazol-2-yl}pyridine trifluoroacetate salt], for which the IC50 was not above 100 nM in experiment [1] and not above 500 nM in experiment [2].
Regarding `Cc1[nH]c(-c2cc(-c3cncc(N4CCOCC4)c3)ccn2)nc1C(C)O` (racemic) [Example 124, 1-[5-Methyl-2-(5-morpholin-4-yl-3,4′-bipyridin-2′-yl)-1H-imidazol-4-yl]ethanol], the IC50 in experiment [1] and in experiment [2] was not above 500 nM in each case.
Turning to `COc1cncc(-c2ccnc(-c3nc4c([nH]3)CCC4)c2)c1` [Example 78, 2-(5-Methoxy-3,4′-bipyridin-2′-yl)-1,4,5,6-tetrahydrocyclopenta[d]imidazole], the IC50 in experiment [1] and in experiment [2] was not above 500 nM each time.
As for `Cc1[nH]c(-c2cc(-c3cncc(N4CCOCC4)c3)ccn2)nc1CN(C)C` [Example 289, N,N-Dimethyl-1-[5-methyl-2-(5-morpholin-4-yl-3,4′-bipyridin-2′-yl)-1H-imidazol-4-yl]methanamine], the IC50 in experiment [1] was more than 500 nM; in experiment [2], not above 50 nM.
For the molecule `Cc1nc(-c2cc(-c3cncc(N)c3)ccn2)[nH]c1C` [Example 129, 2′-(4,5-Dimethyl-1H-imidazol-2-yl)-3,4′-bipyridin-5-amine], the IC50 was not above 100 nM in experiment [1] and not above 500 nM in experiment [2].
`c1ccc(-c2cnc(-c3cc(-c4cnn(C5CCNCC5)c4)ccn3)[nH]2)cc1` [Example 25, 2-(5-Phenyl-1H-imidazol-2-yl)-4-(1-(piperidin-4-yl)-1H-pyrazol-4-yl)pyridine trifluoroacetate salt]: the IC50 in experiment [1] and in experiment [2] was more than 500 nM each time.
`Cc1nc(-c2cc(C3=CCCN(Cc4ccc(Cl)cc4)C3)ccn2)[nH]c1C` [Example 224, 4-(1-(4-Chlorobenzyl)-1,2,5,6-tetrahydropyridin-3-yl)-2-(4,5-dimethyl-1H-imidazol-2-yl)pyridine trifluoroacetate salt]: the IC50 in experiment [1] and in experiment [2] was more than 500 nM in each case.
Turning to `Cc1nc(-c2cc(-c3cncc(NC(=O)OC(C)(C)C)c3)ccn2)[nH]c1C` [Example 128, tert-Butyl [2′-(4,5-dimethyl-1H-imidazol-2-yl)-3,4′-bipyridin-5-yl]carbamate], the IC50 in experiment [1] and in experiment [2] was not above 500 nM each time.
On to `Cc1nc(-c2cc(-c3cncc(C(=O)N4CCC(c5ccncc5)C4)c3)ccn2)[nH]c1C` (racemic) [Example 182, 2′-(4,5-Dimethyl-1H-imidazol-2-yl)-5-[(3-pyridin-4-ylpyrrolidin-1-yl)carbonyl]-3,4′-bipyridine], for which the IC50 in experiment [1] and in experiment [2] was not above 500 nM throughout.
As for `COc1cncc(-c2ccnc(-c3nc(C)c(NC(C)=O)[nH]3)c2)c1` [Example 75, N-[2-(5-Methoxy-3,4′-bipyridin-2′-yl)-4-methyl-1H-imidazol-5-yl]acetamide], the IC50 in experiment [1] and in experiment [2] was more than 500 nM throughout.
Take `CCCn1cc(-c2ccnc(-c3ncc(-c4ccccc4)[nH]3)c2)cn1` [Example 12, 2-(5-Phenyl-1H-imidazol-2-yl)-4-(1-propyl-1H-pyrazol-4-yl)pyridine trifluoroacetate salt]: the IC50 in experiment [1] and in experiment [2] was not above 500 nM each time.
`Cc1[nH]c(-c2cc(-c3cncc(N4CCOCC4)c3)ccn2)nc1CN[C@H]1CCOC1` [Example 286, (3S)-N-{[5-Methyl-2-(5-morpholin-4-yl-3,4′-bipyridin-2′-yl)-1H-imidazol-4-yl]methyl}tetrahydrofuran-3-amine]: the IC50 in experiment [1] was more than 500 nM; in experiment [2], not above 500 nM.
`Cc1nc(-c2cc(C3=CCN(CC4CCOCC4)C3)ccn2)[nH]c1C` [Example 230, 2-(4,5-Dimethyl-1H-imidazol-2-yl)-4-(1-((tetrahydro-2H-pyran-4-yl)methyl)-2,5-dihydro-1H-pyrrol-3-yl)pyridine trifluoroacetate salt]: the IC50 in experiment [1] and in experiment [2] was more than 500 nM throughout.
For `Cc1[nH]c(-c2cc(-c3cncc(N4CCOCC4)c3)ccn2)nc1Nc1ccnnc1` [Example 308, N-[5-Methyl-2-(5-morpholin-4-yl-3,4′-bipyridin-2′-yl)-1H-imidazol-4-yl]pyridazin-4-amine trifluoroacetate salt], the IC50 in experiment [1] is not above 500 nM; in experiment [2] it was not above 50 nM.
As to `O=C(Nc1cncc(-c2ccnc(-c3ncc(-c4ccccc4)[nH]3)c2)c1)c1ccccc1` [Example 132, N-(2′-(5-Phenyl-1H-imidazol-2-yl)-3,4′-bipyridin-5-yl)benzamide], the IC50 in experiment [1] and in experiment [2] was not above 500 nM each time.
